Measurements published in patent US8802692B2, “Synergistic effects between sphingosine-1-phosphate receptor antagonists and antimicrotubule agents” (Exelixis, Inc., priority 2008, dated 2014).

Legend:
Type in all cases: in vivo, Nude mice
[1] = system: human MDA-MB-231 breast cancer cells (ATCC#HTB-26); test: MDA-MB-231 breast cancer xenograft, S1P1R antagonist + docetaxel; conditions: docetaxel alone 7 mg/kg q3d ip; start 96 mgs
Method: In this experiment, a maximum efficacy dose of an S1P1R receptor antagonist was used with an optimal dose of docetaxol (Haorui Pharma Chem, Inc; CAS#114977-28-5). Compound #2, 50, 52, or 75 were used in these experiments. Nude mice (athymic female mice, Taconic Farms, Inc., 10 animals per group) were inoculated subcutaneously with human MDA-MB-231 breast cancer cells (ATCC#HTB-26) (1×10^6 cells per animal). After tumors were allowed to grow for 17 days, one group of animals was treated with docetaxel at a dose of 7 mg/kg q3d ip. One group of animals was treated with a specific dose of S1P1R receptor antagonist and the same dose of docetaxel using the same schedule used for the individual docetaxel group. Finally, a control group was treated with the vehicles used for each agent individually. Tumor dimensions were measured by calipers and then converted to weight using the formula: tumor weight (mg)=[tumor volume=length (mm)×width^2(mm^2)]/2. Animals were also monitored for weight loss as an indicator of signs of toxicity. The S1P1R receptor antagonist was formulated in a composition containing 10% NMP (n-methyl pyrrolidone)+90% corn oil. […]
Cells were inoculated subcutaneously on day 0 and allowed to grow for 17 days. […] Dosing continued for 7 cycles (q3d) and tumors in each of the three groups were measured and averaged. […]

[2] = system: human MDA-MB-231 cells breast cancer cells (ATCC #HTB-26); test: MDA-MB-231 breast cancer xenograft, S1P1R antagonist + paclitaxel; conditions: paclitaxel alone 7.5 mg/kg q3d ip; start 100 mgs
Method: In this experiment, 4 different doses of an S1P1R receptor antagonist, 0.3 mgs/kg, 3 mgs/kg, 10 mgs/kg or 30 mgs/kg was used with an optimal dose of paclitaxel (MP Biomedicals cat #193532). Nude mice (athymic female mice, Taconic Farms, Inc., 10 animals per group) were inoculated subcutaneously with human MDA-MB-231 cells breast cancer cells (ATCC #HTB-26) (1×10^6 cells per animal). After tumors were allowed to grow for 21 days, one group of animals was treated with paclitaxel at a dose of 7.5 mg/kg q3d ip. Four groups of animals were treated with a specific concentration of S1P1R receptor antagonist and the same concentration of paclitaxel using the same schedule used for the individual paclitaxel group. Finally, a control group was treated with the vehicles used for each agent individually. Tumor dimensions were measured by calipers and then converted to weight using the formula: tumor weight (mg)=[tumor volume=length (mm)×[…]]/2. Animals were also monitored for weight loss as an indicator of signs of toxicity. The S1P1R Receptor antagonist was formulated in a compostion containing 10% NMP (n-methyl pyrrolidone)+90% corn oil. […]
Cells were inoculated subcutaneously on day 0 and allowed to grow for 21 days. […] Dosing continued for 19 days and tumors in each of the four groups were measured and averaged. […]

[3] = system: human non-small cell lung carcinoma cells (ATCC #HTB-56); test: Non-small cell lung carcinoma xenograft (Calu-6 XN model), S1P1R antagonist + paclitaxel; conditions: paclitaxel alone 15 mg/kg q3d ip; dosing day 9 to day 31; control about 1500 mgs
Method: In this experiment, a maximum efficacy dose of an S1P1R receptor antagonist was used with an optimal dose of paclitaxel (MP Biomedicals cat #193532). Nude mice (athymic female mice, Taconic Farms, Inc., 10 animals per group) were inoculated subcutaneously with human non-small cell lung carcinoma cells (ATCC #HTB-56) (1×10^6 cells per animal). After tumors were allowed to grow for 9 days, one group of animals was treated with a S1P1R receptor antagonist (100 mg/kg qd po). A second group of animals was treated with paclitaxel at a dose of 15 mg/kg q3d ip. A third group of animals was treated with a S1P1R receptor antagonist and paclitaxel using the same dose and schedule used for the individual agents. A fourth control group was treated with the vehicles used for each agent individually. Tumor dimensions were measured by calipers and then converted to weight using the formula: tumor weight (mg)=[tumor volume=length (mm)×[…]]/2. Animals were also monitored for weight loss as an indicator of signs of toxicity. […]
Cells were inoculated subcutaneously on day 0 and allowed to grow for 9 days. […] Dosing continued until day 31 and tumors from some animals in each of the four groups were measured and averaged. Some animals in the paclitaxel group and the combined treatment group were monitored after treatment stopped for a period of time. […]

[4] = system: human MDA-MB-231 breast cancer cells (ATCC# HTB-26); test: MDA-MB-231 breast cancer xenograft, S1P1R antagonist + vincristine; conditions: start 95 mgs
Method: In this experiment, a maximum efficacy dose of an S1P1R receptor antagonist was used with doses of vincristine (Yes Pharma, Ltd., CAS#2068-78-2, Lot#80702). Compound #2, 50, 52, or 75 were used in these experiments. Nude mice (athymic female mice, Taconic Farms, Inc., 10 animals per group) were inoculated subcutaneously with human MDA-MB-231 breast cancer cells (ATCC# HTB-26) (1×10^6 cells per animal). After tumors were allowed to grow for 19 days, two groups of animals were treated with vincristine at doses of 0.1 or 1 mg/kg q3d iv. One group of animals was treated with a specific concentration of S1P1R receptor antagonist. Two groups of animals were treated with a specific dose of S1P1R receptor antagonist and the same dose of vincristine using the same schedule used for the individual vincristine groups. Finally, a control group was treated with the vehicles used for each agent individually. Tumor dimensions were measured by calipers and then converted to weight using the formula: tumor weight (mg)=[tumor volume=length (mm)×width^2(mm^2)]/2. Animals were also monitored for weight loss as an indicator of signs of toxicity. […]
Cells were inoculated subcutaneously on day 0 and allowed to grow for 19 days. […] Dosing continued for 8 cycles (q3d) and tumors in each of the six groups were measured and averaged. […]

`CC(=O)O[C@@]12CO[C@@H]1C[C@H](O)[C@@]1(C)C(=O)[C@H](O)C3=C(C)[C@@H](OC(=O)[C@H](O)[C@@H](NC(=O)OC(C)(C)C)c4ccccc4)C[C@@](O)([C@@H](OC(=O)c4ccccc4)[C@H]21)C3(C)C` [docetaxel] was tested, and the “average tumor weight after 7 cycles of treatment” value [1] was “about 310 mgs”.
With `CC(=O)O[C@H]1C(=O)[C@@]2(C)[C@H]([C@H](OC(=O)c3ccccc3)[C@]3(O)C[C@H](OC(=O)[C@H](O)[C@@H](NC(=O)c4ccccc4)c4ccccc4)C(C)=C1C3(C)C)[C@]1(OC(C)=O)CO[C@@H]1C[C@@H]2O` [paclitaxel] the “average tumor weight after 19 days of treatment” value [2] was “about 325 mgs” and the “average tumor weight after treatment” value [3] was “about 550 mgs”.
For `CC[C@]1(O)C[C@H]2CN(CCc3c([nH]c4ccccc34)[C@@](C(=O)OC)(c3cc4c(cc3OC)N(C=O)[C@H]3[C@@](O)(C(=O)OC)[C@H](OC(C)=O)[C@]5(CC)C=CCN6CC[C@]43[C@@H]65)C2)C1` [vincristine], the “average tumor weight after 8 cycles of treatment” value ([4]; vincristine alone 0.1 mg/kg q3d iv) was 659 mg and the “average tumor weight after 8 cycles of treatment” value ([4]; vincristine alone 1 mg/kg q3d iv) was 26 mg.
